Experimental data as given in US20090326072A1, “USE OF 2-(2-NITRO-4-TRIFLUOROMETHYLBENZOYL)-l,3- CYCLOHEXANEDIONE IN THE TREATMENT OF PARKINSON'S DISEASE” (priority 2005, published 2009).
“Also recorded” adds a separate entry of the source. Read-outs that look alike come from different tables or passages of the source.

Assays:
[1] = tested on: AMPT rat model of Parkinson's disease; test: AMPT rat model of Parkinson's disease (catalepsy descent latency and centre rearing counts); type: in vivo
Method: AMPT is a competitive inhibitor of tyrosine hydroxylase. Rats dosed with >150 mg/kg AMPT develop parkinsonian-like behavior and locomotor deficits (e.g. catalepsy and reduced rearing activity) within hours owing to the depletion of striatal dopamine concentration as a consequence of the reduced flux through the dopamine synthetic pathway. […] Indian J. Exp. Biol. 41, 1264-1268).
The effect was compared with appropriate vehicle control groups (oral vehicle was 1% carboxymethylcellulose; CMC) and a group that received a 150 mg/kg i.p. dose of L-dopa.
Eight hours after AMPT (or vehicle) administration rats were assessed for catalepsy and centre rearing activity. During the catalepsy test, the front paws of the rat were placed over a horizontal bar suspended 9 cm off the floor. The time taken for the rat to get off the bar (descent latency) was measured with a maximum time of 3 minutes being allowed. Centre rearing counts were determined over a 1 hour monitoring period using an automated activity monitoring system (AM1053). This system used an array of infrared beams to determine the activity and mobility of each animal. Each cage had 48 infrared beams, 24 on each of two levels arranged in an 8×16, 1″ (25.4 mm) pitch grid. The lower grid measured horizontal x, y movement, whilst the upper grid measured rearing movement. The activity detector operated by counting the number of times the beams changed from unbroken to broken and then incrementing the relevant counters.
These groups were compared to a positive control group (6) dosed with 225 mg/kg AMPT i.p.+150 mg/kg L-dopa i.p. 6.5 hour post AMPT dose. L-dopa was administered with a peripheral dopa decarboxylase inhibitor (benserazide), at 100 mg/kg i.p.
In a second and third series of experiments, the efficacy of eight other HPPD inhibitor test compounds were assessed in the AMPT rat model of Parkinson's disease (Tables 1.5 & 1.6). Male Sprague-Dawley rats (300-350 g) were administered a single i.p. dose of 225 mg/kg AMPT and a single oral dose of 10 mg/kg of the HPPD inhibitor test compound was administered either 1 or 16 hours prior to (−16 or −1 hours) AMPT administration. Behavioral assessment (catalepsy and centre rearing counts) was conducted 8 hours post AMPT administration. The effect was compared with a vehicle control group and a group receiving AMPT alone.

[2] = biological target: T1, 4-hydroxyphenyl pyruvate dioxygenase (HPPD) (Rattus norvegicus, UniProt P32755); test: Determination of 4-hydroxyphenyl pyruvate dioxygenase (HPPD) enzyme activity in vitro (rate of oxygen consumption, rat liver cytosol); type: biochemical; settings: for inhibition at 0.1 µM: read-out: % Inhibition at 100 nM; for inhibition at 0.3 µM: read-out: % inhibition at 300 nM
T1 construct: rat liver cytosol (2.7 mg of protein/ml incubate); from tissue; host or cells: rat liver (cytosol, 110,000 g supernatant)
T1 sequence (P32755 whole entry): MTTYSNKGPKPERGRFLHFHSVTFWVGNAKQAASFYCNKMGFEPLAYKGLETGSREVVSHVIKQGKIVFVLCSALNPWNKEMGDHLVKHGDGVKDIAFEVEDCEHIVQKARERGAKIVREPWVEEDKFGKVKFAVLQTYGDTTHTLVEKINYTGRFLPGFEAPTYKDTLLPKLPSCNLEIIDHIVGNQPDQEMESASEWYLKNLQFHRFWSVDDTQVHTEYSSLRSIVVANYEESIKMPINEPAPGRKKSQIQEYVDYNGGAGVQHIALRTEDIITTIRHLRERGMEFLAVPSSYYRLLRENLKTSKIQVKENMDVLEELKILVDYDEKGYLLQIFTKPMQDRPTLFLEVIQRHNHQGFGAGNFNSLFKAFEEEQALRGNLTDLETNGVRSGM
Method: The principle of the assay is that 4-hydroxyphenyl pyruvate dioxygenase (HPPD), an enzyme that participates in the catabolism of tyrosine, catalyses the oxidative decarboxylation and rearrangement of 4-hydroxyphenylpyruvate (HPPA) to homogentisate, with the incorporation of both atoms of molecular oxygen into the product.
Rat liver was homogenised in buffer of the following composition; 0.25 M Sucrose, 5.4 mM EDTA, 20 mM Tris base, pH 7.4, (25% homogenate) using 6 passes of a Potter type homogeniser. The homogenate was then centrifuged at 1,800 g for 10 minutes at 4° C., the pellet was discarded and the supernatant centrifuged at 17,000 g for a further 15 minutes at 4° C. The pellet was then discarded and the supernatant centrifuged at 110,000 g for 80 minutes at 4° C. The supernatant containing the HPPD enzyme from this 110,000 g spin was collected and stored frozen at −70° C. and used in the assays of the test compounds (see below).
Prior to the start of the enzymatic reaction by the addition of HPPA substrate, the enzyme and test compound (inhibitor) were incubated together for 3 minutes.
In cases where the effects of several concentrations of an inhibitor were investigated, an IC50 value (the half-maximal inhibitory concentration of test compound) was determined by plotting the data using a non-linear regression curve-fitting program using a GraphPad Prism™ software package.
Data are expressed as mean values from two experiments except where indicated. Where appropriate the values are expressed as the mean±standard deviation.

plasma tyrosine = test: Plasma tyrosine concentration kinetic profile in the rat following a single oral dose; type: in vivo; settings: for Plasma Tyrosine Concentration: single oral dose 10 mg/kg; for Plasma tyrosine: single oral dose 2.0 mg/kg
Method: The plasma tyrosine concentration kinetic profile in the rat was determined for each of the HPPD inhibitor test compounds by administering a single oral dose to 10-12 week old male Sprague Dawley rats. Compounds 3.20, 3.13 and 3.26 were dosed at 2 mg/kg in 1% carboxymethylcellulose (1% CMC) vehicle, whilst compounds 3.22, 3.12, 3.15, 3.18, 3.23, 3.21, 3.11, 3.01, 3.24 and 3.25 were administered at 10 mg/kg in 1% CMC.
Blood samples to determine plasma tyrosine concentration were obtained at frequent intervals during the first 24 hours post-dose, and at 48 hours post-dose. These samples were either compared with blood samples obtained from control rats which only received an equivalent volume of the vehicle, 1% CMC, or by comparison with control samples obtained from the rats 1 hour prior to dosing with test the compound. Prior to the analysis of the samples for plasma tyrosine concentration, the blood samples were centrifuged at 1800 g for 10 minutes at 4° C. The plasma was collected and then filtered through a centrifugal micro partition device at 1500 g for 30 minutes at 4° C. The filtered plasma was then divided into two aliquots and stored frozen at −70° C. for subsequent gradient reverse phase high performance liquid chromatographic (HPLC) analysis of plasma tyrosine. Aliquots of plasma were analysed by HPLC using a 250×4.6 mm Hichrom S5ODS2 column at 30° C., eluted with a mobile phase of water/acetonitrile/trifluoroacetic acid (950:50:2 v/v/v) at a flow rate of 1 ml/min. Detection was by a diode array detector at 274 nm. Appropriate tyrosine standards were run alongside the samples for calibration purposes.
The plasma tyrosine concentration kinetic profile for the test compounds 3.20, 3.13 and 3.26 are shown at the time points 1, 2, 4, 6, 12, 24 and 48 hours post-dose in Table 1.1. The data shown are the mean±standard deviation (n=4), except for the 6 hour time point where the data were obtained from n=3 rats for the control and 3.26 groups.
The plasma tyrosine concentration kinetic profile for the test compounds 3.22, 3.12, 3.15, 3.18, 3.23, 3.21, 3.11, 3.01, 3.24 and 3.25 are shown at the time points −1 hour (pre-dose control), 1, 3, 6, 12, 24 and 48 hours post-dose, in Tables 1.2 and 1.3. The data shown are the mean±standard deviation (n=3), except for the −1 hour time point with compound 3.23, where n=2 (Table 1.2), and for the 3 and 6 hour time points with compound 3.21, where n=2 (Table 1.3).

[3] = 225 mg/kg AMPT i.p. + 2 mg/kg oral 4 hours post AMPT (+4 hours), 8 h post AMPT
[4] = 225 mg/kg AMPT i.p. + 2 mg/kg oral 16 hours prior to AMPT (-16 hours), 8 h post AMPT
[5] = single oral dose 10 mg/kg, -16 or -1 hours
[6] = single oral dose 10 mg/kg, -16 or -1 hours, 10 mg/kg
[7] = Table 1.5: 225 mg/kg AMPT i.p. + 10 mg/kg oral at -16 hours, 8 h post AMPT
[8] = 100 nM test compound, rat liver cytosol, 3 min pre-incubation
[9] = 300 nM test compound, rat liver cytosol, 3 min pre-incubation
[10] = 225 mg/kg AMPT i.p. + 150 mg/kg i.p. at +6.5 hours, with benserazide 100 mg/kg i.p., 8 h post AMPT

inhibition at 0.1 µM [2, 8]	SMILES	inhibition at 0.1 µM [2]	inhibition at 0.3 µM [2]	Plasma Tyrosine Concentration (plasma tyrosine; 1 hour post-dose)	Plasma Tyrosine Concentration (plasma tyrosine; 3 hours post-dose)	Plasma Tyrosine Concentration (plasma tyrosine; 6 hours post-dose)	Plasma Tyrosine Concentration (plasma tyrosine; 12 hours post-dose)	Plasma Tyrosine Concentration (plasma tyrosine; 24 hours post-dose)	Plasma Tyrosine Concentration (plasma tyrosine; 48 hours post-dose)	also measured
–	O=C1CCCC(O)=C1C(=O)c1ccc(C(F)(F)F)cc1[N+](=O)[O-] [Compound 2, 2-(2-Nitro-4-Trifluoromethylbenzoyl)-1,3-Cyclohexanedione]	–	–	–	–	–	–	–	–	Mean Catalepsy Descent Latency (s) [1, 3]: 27 ± 6.7^++ s; Mean Centre Rearing Counts [1, 3]: 298 ± 57^++ counts; Mean Catalepsy Descent Latency (s) [1, 4]: 27 ± 5.4^++ s; Mean Centre Rearing Counts [1, 4]: 364 ± 74^++ counts; Mean Catalepsy Descent Latency ([1]; AMPT vehicle (saline i.p., no AMPT) + 2 mg/kg oral at +4 hours, assessed 8 h): 12 ± 4.3 s; Mean Centre Rearing Counts ([1]; AMPT vehicle (saline i.p., no AMPT) + 2 mg/kg oral at +4 hours, assessed 8 h, 1 hour monitoring): 485 ± 108 counts; reversal of AMPT induced deficits in centre rearing counts (in words) ([1]; single oral dose 2 mg/kg, 2 mg/kg): reversed; also recorded: effective in reversing; reversal of AMPT induced catalepsy (in words) ([1]; single oral dose 2 mg/kg, both dosing regimens, 2 mg/kg): substantially reversed; also recorded: effective in reversing
–	CS(=O)(=O)c1cc(C(F)(F)F)ccc1C(=O)c1cnoc1C1CC1 [Compound 3.01]	8%	36%	160 ± 7.4 nmol/mL	276 ± 12.9 nmol/mL	445 ± 32.9 nmol/mL	666 ± 16.1 nmol/mL	264 ± 23.5 nmol/mL	110 ± 23.9 nmol/mL	Mean Centre Rearing Counts ([1]; Table 1.6: 225 mg/kg AMPT i.p. + 10 mg/kg oral at -1 hour, 8 h post AMPT): 88 ± 26 counts; reversal of AMPT induced deficits in mean centre rearing counts (in words) [1, 5]: either partially or completely reversing; reversal of AMPT induced catalepsy (in words) [1, 6]: substantially reversed; also recorded: effective in reversing
–	Cc1cc(C(=O)C2=C([O-])CCCC2=O)c(C)c2c1S(=O)(=O)CCC21OCCO1.[K+] [Compound 3.11]	9%	45%	193 ± 22.9 nmol/mL	338 ± 48.9 nmol/mL	551 ± 80.7 nmol/mL	1041 ± 106.0 nmol/mL	2125 ± 65.8 nmol/mL	993 ± 260.6 nmol/mL	Mean Catalepsy Descent Latency (s) [1, 7]: 9 ± 2.7^+++ s; Mean Centre Rearing Counts [1, 7]: 303 ± 53 counts; reversal of AMPT induced deficits in mean centre rearing counts (in words) [1, 5]: either partially or completely reversing; reversal of AMPT induced catalepsy (in words) [1, 6]: substantially reversed; also recorded: effective in reversing
–	COCCOCc1nc(C(F)(F)F)ccc1C(=O)C1=C(O)C2CCC(C2)C1=O (stereo not drawn) [Compound 3.13]	14%	41%	–	–	–	–	–	–	IC50 ([2]; rat liver cytosol HPPD): 350 nM; Plasma tyrosine (plasma tyrosine; 1 hour post-dose): 158 ± 6.4 nmol/mL; Plasma tyrosine (plasma tyrosine; 2 hours post-dose): 209 ± 14.8 nmol/mL; Plasma tyrosine (plasma tyrosine; 4 hours post-dose): 324 ± 50.2 nmol/mL; Plasma tyrosine (plasma tyrosine; 6 hours post-dose): 461 ± 52.2 nmol/mL; Plasma tyrosine (plasma tyrosine; 12 hours post-dose): 801 ± 24.8 nmol/mL; Plasma tyrosine (plasma tyrosine; 24 hours post-dose): 1281 ± 90.0 nmol/mL; Plasma tyrosine (plasma tyrosine; 48 hours post-dose): 115 ± 3.0 nmol/mL
–	CC1=NN(C)C(=O)C1C(=O)c1ccc(C(F)(F)F)cc1S(C)(=O)=O (stereo not drawn) [Compound 3.21]	10%	43%	177 ± 17.8 nmol/mL	300 nmol/mL	472 nmol/mL	555 ± 39.0 nmol/mL	181 ± 23.6 nmol/mL	100 ± 6.4 nmol/mL	–
44%	CCOc1c(S(C)(=O)=O)ccc(C(=O)C2C(=O)CC(C)CC2=O)c1Cl (stereo not drawn) [Compound 3.22]	–	–	179 ± 18.5 nmol/mL	319 ± 43.5 nmol/mL	507 ± 86.4 nmol/mL	1011 ± 134.8 nmol/mL	2067 ± 36.6 nmol/mL	2377 ± 518.5 nmol/mL	–
5%	CS(=O)(=O)c1cc(Cl)ccc1C(=O)c1cnoc1C1CC1 [Compound 3.25]	–	–	162 ± 17.7 nmol/mL	267 ± 19.4 nmol/mL	370 ± 60.8 nmol/mL	415 ± 152.8 nmol/mL	136 ± 31.2 nmol/mL	100 ± 13.5 nmol/mL	inhibition at 0.3 µM [2, 9]: 22%
20 ± 6.1%	Cc1nc(C(F)F)ccc1C(=O)C1C(=O)C2CCC(C2)C1=O (stereo not drawn) [Compound 3.26]	–	–	–	–	–	–	–	–	inhibition at 0.3 µM [2, 9]: 43%; Plasma tyrosine (plasma tyrosine; 1 hour post-dose): 173 ± 9.6 nmol/mL; Plasma tyrosine (plasma tyrosine; 2 hours post-dose): 241 ± 24.0 nmol/mL; Plasma tyrosine (plasma tyrosine; 4 hours post-dose): 337 ± 53.5 nmol/mL; Plasma tyrosine (plasma tyrosine; 6 hours post-dose): 504 ± 72.7 nmol/mL; Plasma tyrosine (plasma tyrosine; 12 hours post-dose): 897 ± 140.8 nmol/mL; Plasma tyrosine (plasma tyrosine; 24 hours post-dose): 1987 ± 50.0 nmol/mL; Plasma tyrosine (plasma tyrosine; 48 hours post-dose): 2449 ± 156.8 nmol/mL
–	N[C@@H](Cc1ccc(O)c(O)c1)C(=O)O [L-dopa, L-3,4-dihydroxyphenylalanine, reference compound]	–	–	–	–	–	–	–	–	Mean Catalepsy Descent Latency (s) [1, 10]: 25 ± 6.9^++ s; Mean Centre Rearing Counts [1, 10]: 258 ± 71^+ counts
